Reference: patent publication US11241455B2, “Methods of treating disease by metabolic control of T-cell differentiation” (The J. David Gladstone Institutes, a testamentary trust …, priority 2016, dated 2022)

Tests used:
Format in all cases: cell-based, mouse
[1] = test system: differentiating iTreg cells; assay: Intracellular metabolite profiling by LC/MS in differentiating iTreg cells; conditions: day 2.5, 0.5 mM AOA
Protocol: CD4 naïve T cells, differentiating TH17 cells (day 2.5), and differentiating iTreg cells (day 2.5) were obtained as described above. A solution of 80/20 methanol (MeOH)/H2O was used to extract intracellular metabolites. The extracted samples were analyzed with liquid chromatography (LC)/mass spectrometry (MS) metabolomics. 200 ng/mL of extraction standard (L-Glutamic acid-^13C5-^15N-d5) was added into samples, and the peak value for each metabolite was normalized to extraction standard. The data was transformed into Log 2 and clustered. Cell extracts obtained as described above were analyzed for relative abundance of ^13C and ^15N metabolites by liquid chromatography-triple quadrupole mass spectrometry (LC-MS) using scheduled selective reaction monitoring (SRM) for each metabolite of interest, with the detector set to negative mode. Quantitation of intracellular 2-hydroxyglutarate (2HG) was conducted as described previously (Kernesky et al., Blood 2015, 125(2) 296-303).

[2] = test system: differentiating TH17 cells; assay: TH17 differentiation of CD4 naïve T cells (IL17F-RFP/FOXP3-GFP reporter or intracellular staining of IL-17 and FOXP3); conditions: compound added after 24 hours of TH17 differentiation, analyzed on day 6
Protocol: CD4 naïve T cells (CD4+CD25-CD62^highCD44^low) were obtained from interleukin (IL)-17F-red fluorescent protein (RFP)/FOXP3-green fluorescent protein (GFP) mice, which were characterized previously, or wild-type C57/BL6 mice, by cell sorting. 0.4 million cells were plated into 48 wells coated with anti-mouse CD3 (clone 145-2C11, eBioscience) […] and anti-mouse CD28 (clone 37.51, eBioscience) (1 μg/ml). The differentiation media for these naïve T cells was as follows: 0.5 ng/ml (or indicated) transforming growth factor (TGF) β, 200 U/ml mouse IL-2, 2 μg/ml anti-interferon (IFN) γ and 2 μg/ml anti-mouse IL4 for differentiation into iTreg cells; and 2.5 ng/ml TGFβ, 10 ng/ml mouse IL-1β, 10 ng/ml mouse IL-6, 10 ng/ml mouse IL-23, 2 μg/ml anti-mouse IFNγ, and anti-mouse IL-4 for differentiating into TH17 cells. The cells were supplemented with new medium at day 4. In cases in which small-molecule compounds were present, the fresh medium containing the same concentration of compounds was used. When necessary, the individual metabolite was added into the T-cell culture 6 hours later after initial cell plating. On day 6, the cells were analyzed for IL17F-RFP and FOXP3-GFP or the cells were collected and restimulated for 4-6 hours with PMA, inomycin, and Golgi-stop for intracellular staining in absence of indicated compounds.
To identify small molecules that regulate cell-fate switching of TH17/iTreg cells and to further understand the regulation of the TH17/iTreg balance, 10,000 individual small molecules were phenotypically screened using CD4 naïve T cells from IL-17F-RFP/FOXP3-GFP mice. The naïve T cells were cultured under optimal TH17 differentiation conditions and compounds that could reprogram TH17 differentiation toward iTreg cell fate were identified using the reporter readout. Briefly, after TH17 differentiation for 24 hours, compounds were added to TH17 culture, and the treatment was continued for an additional 5 days before the cells were analyzed for IL17F-RFP and FOXP3-GFP expression by high-throughput fluorescence-activated cell sorting (FACS) (FIG. 5a). […] This effect of reprogrammed differentiation was further confirmed by intracellular immunostaining of IL-17 and FOXP3 (FIG. 1a).

[3] = test system: differentiating TH17 cells; assay: U-13C glutamine flux analysis in differentiating TH17 cells; conditions: 2 mM U-13C-glutamine for 4 hours
Protocol: CD4 naïve T cells, differentiating TH17 or iTreg cells (68 hours) were incubated with fresh media prior to labeling. The cells were then cultured for 4 hours at 37° C. with medium where the glutamine was replaced with the corresponding stable isotope label: 2 mM U-^13C glutamine or 2 mM ^15N-α-glutamine for 4 hours at 37° C. The cells were quickly collected and quickly washed with phosphate buffer saline (PBS), pelleted, and snap frozen in liquid nitrogen. The frozen samples were kept in −80° C. until extraction. Cell extracts were prepared by first adding 80/20 MeOH/H2O at −60° C. to the frozen pellets and collecting the supernatant after centrifugation at 4° C. The extracted samples were analyzed by high-resolution liquid-chromatography-mass spectrometry. Unlabeled glutamine-fed cells were used as background. For negative mode metabolomics: Cell extracts obtained as described above were analyzed for relative abundance of metabolites by liquid chromatography-triple quadrupole mass spectrometry (LC-MS) using scheduled selective reaction monitoring (SRM) for each metabolite of interest, with the detector set to negative mode. Prior to injection, dried extracts were reconstituted in LC-MS grade water. LC separation was achieved by reverse-phase ion-pairing chromatography.

[4] = test system: FOXP3 mRNA in iTreg cells; assay: mRNA expression analysis by qRT-PCR in iTreg cells; conditions: normalized to β-actin
Protocol: At the end of differentiation (day 6), T cells were re-stimulated with plate-coated anti-CD3 and anti-CD28 for 5 hours in the absence of any small-molecule compounds or metabolites. Quantitative reverse transcriptase polymerase chain reaction (qRT-PCR) was performed to evaluate mRNA expression of FOXP3, Il17, Il17f, and Rorc. For differentiating TH17 or iTreg cells, cells were collected on day 2.5 or at the indicated time for mRNA expression analysis. The expression was normalized to β-actin.

NOCC(=O)O [AOA, (aminooxy)-acetic acid]
abundance of TCA cycle intermediates (α-KG, succinate, fumarate, malate, citrate) [1]: reduced partially | level of glutamate [1]: slightly higher | reduction of steady-state levels of 2-HG [1]: 50% | reprogramming of TH17 induction to iTreg cells (IL17F-expressing and FOXP3-expressing cells) [2]: reprogram TH17 induction to iTreg cells in a dose-dependent manner | de novo synthesis of α-KG and 2-HG (U-13C labeled, normalized to U-13C-glutamine) [3]: inhibited | FOXP3 mRNA expression [4]: promoted transcription of FOXP3
